Active and inactive are the calls of the source. The calls are words filed in the database; no cut-off is given here.
Experiments:
MDA-MB-231 [1] = assay: Induction of mitochondrial membrane potential loss in human MDA-MB-231 cells at 20 uM measured after 48 hrs by JC-1 staining based assay relative to control; format: functional
ASPC1 = assay: Antiproliferative activity against human ASPC cells assessed as cell growth inhibition measured after 48 hrs by MTT assay; format: functional, cell-based; details: ASPC1, 48 h
PANC-1 = assay: Antiproliferative activity against human PANC cells assessed as cell growth inhibition measured after 48 hrs by MTT assay; format: functional, cell-based; details: PANC-1, 48 h
LN-229 = assay: Antiproliferative activity against human LN-229 cells assessed as cell growth inhibition measured after 48 hrs by MTT assay; format: functional, cell-based; details: LN-229, 48 h
MDA-MB-231 [2] = assay: Antiproliferative activity against human MDA-MB-231 cells assessed as reduction in cell count by microscopy; format: functional, cell-based
MDA-MB-468 [3] = assay: Antiproliferative activity against human MDA-MB-468 cells assessed as reduction in Ki67 expression measured after 48 hrs by immunofluorescence analysis; format: functional, cell-based
MDA-MB-231 [4] = assay: Inhibition of autophagy in human MDA-MB-231 cells assessed as increase in LC3B-II expression measured after 48 hrs by immunofluorescence analysis; format: functional, cell-based; details: dose 5-20 µM
MDA-MB-231 [5] = assay: Inhibition of autophagy in human MDA-MB-231 cells assessed as increase in p62 expression at 5 to 20 uM measured after 48 hrs by Western blot analysis; format: functional, cell-based; details: dose 5-20 µM, DDE = dose-dependent effect
HeLa = assay: Inhibition of autophagic flux in human HeLa cells expressing mRFP-EGFP-LC3B assessed as blockage of autophagosome-lysosome fusion by measuring accumulation of yellow fluorescent vesicles; format: functional, cell-based
MDA-MB-468 [6] = assay: Induction of DNA damage in human MDA-MB-468 cells assessed as increase in gamma-H2AX accumulation measured after 48 hrs by immunofluorescence analysis; format: functional, cell-based
[7] = biological target: Serine-protein kinase ATM (Homo sapiens) (UniProt Q13315); assay: Activation of ATM phosphorylation in human MDA-MB-468 cells at 5 to 20 uM measured after 6 to 48 hrs by Western blot analysis; format: cell-based; details: filed as activator, dose 5-20 µM, time 6-48 hrs
Serine-protein kinase ATM (Homo sapiens), sequence (Q13315 whole entry): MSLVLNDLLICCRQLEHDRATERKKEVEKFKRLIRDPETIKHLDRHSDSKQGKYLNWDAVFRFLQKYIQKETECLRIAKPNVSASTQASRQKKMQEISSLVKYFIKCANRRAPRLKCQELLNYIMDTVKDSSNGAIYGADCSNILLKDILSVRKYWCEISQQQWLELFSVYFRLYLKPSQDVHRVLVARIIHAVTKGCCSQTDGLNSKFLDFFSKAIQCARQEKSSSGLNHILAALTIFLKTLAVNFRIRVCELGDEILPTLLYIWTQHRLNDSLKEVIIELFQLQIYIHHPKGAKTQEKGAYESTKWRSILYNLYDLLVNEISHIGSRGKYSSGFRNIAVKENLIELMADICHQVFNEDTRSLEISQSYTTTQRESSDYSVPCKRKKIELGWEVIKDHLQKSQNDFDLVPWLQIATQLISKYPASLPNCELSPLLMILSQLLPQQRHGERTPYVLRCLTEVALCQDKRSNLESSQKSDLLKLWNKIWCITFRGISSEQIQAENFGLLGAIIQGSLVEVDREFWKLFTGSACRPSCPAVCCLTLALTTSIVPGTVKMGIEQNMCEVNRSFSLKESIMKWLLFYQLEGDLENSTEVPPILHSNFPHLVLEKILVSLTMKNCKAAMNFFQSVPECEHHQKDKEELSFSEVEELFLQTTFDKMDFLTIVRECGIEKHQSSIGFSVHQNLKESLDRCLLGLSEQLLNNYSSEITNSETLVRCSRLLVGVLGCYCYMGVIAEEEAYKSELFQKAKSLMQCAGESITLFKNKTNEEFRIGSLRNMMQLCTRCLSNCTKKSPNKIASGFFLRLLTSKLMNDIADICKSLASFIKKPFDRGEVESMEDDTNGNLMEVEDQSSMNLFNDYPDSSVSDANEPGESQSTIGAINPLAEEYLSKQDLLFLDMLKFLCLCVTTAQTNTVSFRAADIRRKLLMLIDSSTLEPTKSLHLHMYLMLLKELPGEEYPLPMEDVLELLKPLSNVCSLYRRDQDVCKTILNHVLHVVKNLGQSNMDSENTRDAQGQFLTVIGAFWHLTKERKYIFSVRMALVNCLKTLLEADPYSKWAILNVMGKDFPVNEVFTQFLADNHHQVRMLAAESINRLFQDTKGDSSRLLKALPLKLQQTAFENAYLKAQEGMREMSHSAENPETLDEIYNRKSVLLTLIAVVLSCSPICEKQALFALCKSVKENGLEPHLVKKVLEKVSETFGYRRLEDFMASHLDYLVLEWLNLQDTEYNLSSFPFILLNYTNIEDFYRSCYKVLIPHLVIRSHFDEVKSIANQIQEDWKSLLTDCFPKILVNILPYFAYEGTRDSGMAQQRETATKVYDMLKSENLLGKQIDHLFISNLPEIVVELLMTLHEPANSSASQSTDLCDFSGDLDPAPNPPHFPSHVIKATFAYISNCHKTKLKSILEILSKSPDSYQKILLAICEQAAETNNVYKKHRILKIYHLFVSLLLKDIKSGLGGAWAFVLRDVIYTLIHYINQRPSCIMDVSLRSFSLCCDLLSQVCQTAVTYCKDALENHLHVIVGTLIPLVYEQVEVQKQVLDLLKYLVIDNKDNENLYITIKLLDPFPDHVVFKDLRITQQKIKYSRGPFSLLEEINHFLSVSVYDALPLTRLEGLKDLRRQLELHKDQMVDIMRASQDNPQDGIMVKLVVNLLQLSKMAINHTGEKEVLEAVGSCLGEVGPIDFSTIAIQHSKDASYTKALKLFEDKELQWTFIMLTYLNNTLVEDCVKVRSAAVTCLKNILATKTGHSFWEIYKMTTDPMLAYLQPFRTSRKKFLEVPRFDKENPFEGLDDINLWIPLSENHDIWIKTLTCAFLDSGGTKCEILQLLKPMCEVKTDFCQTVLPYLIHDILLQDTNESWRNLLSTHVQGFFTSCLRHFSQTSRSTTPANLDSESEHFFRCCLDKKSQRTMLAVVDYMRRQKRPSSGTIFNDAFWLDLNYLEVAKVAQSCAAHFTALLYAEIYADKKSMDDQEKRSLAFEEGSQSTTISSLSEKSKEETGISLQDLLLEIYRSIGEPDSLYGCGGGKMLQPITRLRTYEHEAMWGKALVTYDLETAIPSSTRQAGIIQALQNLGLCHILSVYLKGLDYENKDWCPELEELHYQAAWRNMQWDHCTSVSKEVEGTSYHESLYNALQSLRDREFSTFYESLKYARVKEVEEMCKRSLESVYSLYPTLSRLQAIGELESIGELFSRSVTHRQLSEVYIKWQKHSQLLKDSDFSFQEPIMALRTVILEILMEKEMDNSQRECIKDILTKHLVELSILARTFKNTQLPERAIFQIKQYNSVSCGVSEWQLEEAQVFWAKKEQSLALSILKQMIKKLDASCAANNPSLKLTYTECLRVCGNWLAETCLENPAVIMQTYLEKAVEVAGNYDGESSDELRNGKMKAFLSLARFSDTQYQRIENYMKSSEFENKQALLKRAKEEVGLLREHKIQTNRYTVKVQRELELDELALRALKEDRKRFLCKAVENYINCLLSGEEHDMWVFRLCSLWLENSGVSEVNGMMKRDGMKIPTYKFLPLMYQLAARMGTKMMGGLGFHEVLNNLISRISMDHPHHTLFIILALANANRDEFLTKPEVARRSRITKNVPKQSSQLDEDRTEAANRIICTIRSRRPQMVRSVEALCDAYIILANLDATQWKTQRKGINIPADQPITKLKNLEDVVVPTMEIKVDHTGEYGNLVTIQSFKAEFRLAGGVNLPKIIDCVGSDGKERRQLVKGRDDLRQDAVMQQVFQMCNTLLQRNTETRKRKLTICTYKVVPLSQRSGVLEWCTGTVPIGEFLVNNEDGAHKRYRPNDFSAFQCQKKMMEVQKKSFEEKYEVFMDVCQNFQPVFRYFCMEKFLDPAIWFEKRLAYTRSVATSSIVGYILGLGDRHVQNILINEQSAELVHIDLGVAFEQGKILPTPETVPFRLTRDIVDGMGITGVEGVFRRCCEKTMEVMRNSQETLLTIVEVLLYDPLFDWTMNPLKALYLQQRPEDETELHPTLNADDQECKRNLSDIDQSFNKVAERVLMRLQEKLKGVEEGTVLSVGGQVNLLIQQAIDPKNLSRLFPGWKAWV

Nibrin (Homo sapiens) = biological target: T1, Nibrin (Homo sapiens) (UniProt O60934); assay: Activation of NBS1 phosphorylation in human MDA-MB-468 cells at 5 to 20 uM measured after 6 to 48 hrs by Western blot analysis; format: cell-based; details: filed as activator, dose 5-20 µM, time 6-48 hrs
T1 sequence (whole entry): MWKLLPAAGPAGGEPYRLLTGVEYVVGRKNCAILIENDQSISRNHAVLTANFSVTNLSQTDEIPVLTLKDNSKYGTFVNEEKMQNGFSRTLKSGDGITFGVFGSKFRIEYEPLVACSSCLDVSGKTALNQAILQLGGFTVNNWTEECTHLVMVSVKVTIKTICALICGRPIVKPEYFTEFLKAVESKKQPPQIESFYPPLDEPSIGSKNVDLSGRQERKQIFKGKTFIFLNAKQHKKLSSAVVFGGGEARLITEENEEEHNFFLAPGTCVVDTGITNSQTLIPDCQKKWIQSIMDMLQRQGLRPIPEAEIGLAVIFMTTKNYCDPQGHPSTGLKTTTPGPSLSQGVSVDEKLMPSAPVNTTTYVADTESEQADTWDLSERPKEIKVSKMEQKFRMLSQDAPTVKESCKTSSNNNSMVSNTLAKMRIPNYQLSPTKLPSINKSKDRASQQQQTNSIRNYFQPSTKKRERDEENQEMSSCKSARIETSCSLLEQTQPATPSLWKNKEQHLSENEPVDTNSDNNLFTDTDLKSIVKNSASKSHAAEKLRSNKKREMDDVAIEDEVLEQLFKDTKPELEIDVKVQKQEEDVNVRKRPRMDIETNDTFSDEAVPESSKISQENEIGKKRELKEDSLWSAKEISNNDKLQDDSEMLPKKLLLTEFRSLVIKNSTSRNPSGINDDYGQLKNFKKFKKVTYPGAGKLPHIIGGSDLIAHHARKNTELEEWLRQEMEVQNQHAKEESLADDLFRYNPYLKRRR

MDA-MB-231 [8] = assay: Induction of DNA damage in human MDA-MB-231 cells assessed as reduction in RAD51 expression measured after 6 to 48 hrs by Western blot analysis; format: functional, cell-based; details: dose 5-20 µM, time 6-48 hrs, DDE = dose-dependent effect
MDA-MB-468 [9] = assay: Inhibition of autophagic flux in human MDA-MB-468 cells assessed as increase in nuclear p62 expression measured after 48 hrs by immunofluorescence analysis; format: functional, cell-based; details: dose 5-20 µM, DDE = dose-dependent effect
MDA-MB-231 [10] = assay: Inhibition of autophagic flux in human MDA-MB-231 cells assessed as increase in cytoplasmic p62 expression measured after 48 hrs by Western blot analysis; format: functional, cell-based; details: dose 5-20 µM, DDE = dose-dependent effect
MDA-MB-231 [11] = assay: Inhibition of autophagic flux in human MDA-MB-231 cells assessed as reduction in polyubiquitinated H2A expression measured after 48 hrs by Western blot analysis; format: functional, cell-based
MDA-MB-231 [12] = assay: Cell cycle arrest in human MDA-MB-231 cells assessed as increase in CHK1 phosphorylation at Ser 345 residue measured after 48 hrs by Western blot analysis; format: functional, cell-based; details: dose 5-20 µM, DDE = dose-dependent effect
MDA-MB-468 [13] = assay: Cell cycle arrest in human MDA-MB-468 cells assessed as reduction in cyclin B expression measured after 48 hrs by Western blot analysis; format: functional, cell-based; details: dose 5-20 µM, DDE = dose-dependent effect
MDA-MB-468 [14] = assay: Cell cycle arrest in human MDA-MB-468 cells assessed as increase in p21 expression measured after 48 hrs by Western blot analysis; format: functional, cell-based; details: dose 5-20 µM, DDE = dose-dependent effect
MDA-MB-468 [15] = assay: Cell cycle arrest in human MDA-MB-468 cells assessed as increase in CHK1 phosphorylation at Ser 345 residue measured after 48 hrs by Western blot analysis; format: functional, cell-based; details: dose 5-20 µM, DDE = dose-dependent effect
MDA-MB-231 [16] = assay: Induction of apoptosis in human MDA-MB-231 cells assessed as increase in Bax expression measured after 48 hrs by Western blot analysis; format: functional, cell-based; details: dose 5-20 µM, DDE = dose-dependent effect
MDA-MB-231 [17] = assay: Induction of apoptosis in human MDA-MB-231 cells assessed as increase in cytochrome c expression measured after 48 hrs by Western blot analysis; format: functional, cell-based; details: dose 5-20 µM, DDE = dose-dependent effect
MDA-MB-468 [18] = assay: Induction of apoptosis in human MDA-MB-468 cells assessed as increase in Bim expression measured after 48 hrs by Western blot analysis; format: functional, cell-based; details: dose 5-20 µM, DDE = dose-dependent effect
MDA-MB-468 [19] = assay: Induction of apoptosis in human MDA-MB-468 cells assessed as increase in cytochrome c expression measured after 48 hrs by Western blot analysis; format: functional, cell-based; details: dose 5-20 µM, DDE = dose-dependent effect
MDA-MB-231 [20] = assay: Antitumor activity against human MDA-MB-231 cells xenografted in ip dosed NOD/SCID mouse assessed as upregulation of PARP expression administered at 3 days interval for 24 days and measured on day 25 by Western blot analysis; format: functional, organism-based; details: dose 5-15 mg/kg, time 25.0 day, DDE = dose-dependent effect

- IC50 (ASPC1): 26.9 µM
- IC50 (PANC-1): 19.2 µM
- Activity [7]: Active
- Activity (Nibrin (Homo sapiens)): Active
SMILES: O=C(NC1CCCCC1)c1[nH]cnc1-c1nc2ccccc2[nH]1
- Activity (MDA-MB-231 [1]): 50%
- IC50 (LN-229): 61.4 µM
- Activity (MDA-MB-231 [2]): Active
- Activity (MDA-MB-468 [3]): Active
- inhibition (MDA-MB-231 [4]): Active
- inhibition (MDA-MB-231 [5]): Dde
- inhibition (HeLa): Active
- Activity (MDA-MB-468 [6]): Active
- Activity (MDA-MB-231 [8]): Dde
- inhibition (MDA-MB-468 [9]): Dde
- inhibition (MDA-MB-231 [10]): Dde
- inhibition (MDA-MB-231 [11]): Active
- Activity (MDA-MB-231 [12]): Dde
- Activity (MDA-MB-468 [13]): Dde
- Activity (MDA-MB-468 [14]): Dde
- Activity (MDA-MB-468 [15]): Dde
- Activity (MDA-MB-231 [16]): Dde
- Activity (MDA-MB-231 [17]): Dde
- Activity (MDA-MB-468 [18]): Dde
- Activity (MDA-MB-468 [19]): Dde
- Activity (MDA-MB-231 [20]): Dde

Reference: ChEMBL document CHEMBL5113482, “Discovery of fused benzimidazole-imidazole autophagic flux inhibitors for treatment of triple-negative breast cancer” (Eur J Med Chem, 2022)
